In patent US20040242459A1 (priority 2001, published 2004):
Marks after values point to notes of the source that are not given here.

How the values were obtained:
[1] = tested on: adjuvant-induced arthritis in female Lewis rats; settings: for Secondary Foot Volume % Inhibition Compared to Vehicle Day 21-0 / Change in Secondary Foot Volume Day 21-0 / Change in Secondary Foot Volume Day 14-0 / Secondary Foot Volume % Inhibition Compared to Vehicle Day 14-0: contralateral paw; for Change in Secondary Foot Volume Day 21-0: mean, SD wrapped to next line; for Change in Secondary Foot Volume Day 14-0 / Change in Primary Foot Volume Day 4-0 / change in body weight Day 21-0 / change in body weight Day 14-0: p.o. q.d.; for Change in Secondary Foot Volume Day 14-0 / Change in Primary Foot Volume Day 4-0 / change in body weight Day 14-0: Compounds 1, 2, 4, 6 30 mg/kg/day; for Change in Secondary Foot Volume Day 14-0 / Change in Primary Foot Volume Day 4-0: Compound 3 50, Compound 5 100, indomethacin 2; for Change in Secondary Foot Volume Day 14-0 / Change in Primary Foot Volume Day 21-0 / Change in Primary Foot Volume Day 4-0 / Change in Primary Foot Volume Day 14-0 / radiographic total scores on day 21, Primary (injected) paw / radiographic total scores on day 21, Secondary (contralateral) Paw / change in body weight Day 21-0 / change in body weight Day 14-0 / Spleen / Thymus (mg) / Thymus: mean ± SD; for Secondary Foot Volume % Inhibition Compared to Vehicle Day 14-0 / Primary Foot Volume % Inhibition Compared to Vehicle Day 4-0 / Primary Foot Volume % Inhibition Compared to Vehicle Day 14-0 / Change in Primary Foot Volume Day 14-0: same doses p.o. q.d.; for radiographic total scores on day 21, Primary (injected) paw / radiographic total scores on day 21, Secondary (contralateral) Paw: maximum score per foot 26; for change in body weight Day 21-0: indomethacin 2 mg/kg/day; for change in body weight Day 14-0: Compound 3 50, Compound 5 100, indomethacin 2 mg/kg/day; for body weight gain compared with vehicle-treated animals: prophylactic, Compound 1 30 mg/kg q.d.; for Spleen / Thymus (mg) / Thymus: weight at necropsy, day of euthanasia 21 (Compound 1, indomethacin) or 15 (Compounds 2-6); for prevention of swelling of primary or secondary paws: up to day 14, rats then euthanized
Procedure: Nine groups of 10 rats each were injected with an emulsion containing 0.5 mg of Mycobacterium butyricum in 0.1 ml of light mineral oil, and a negative control group of 10 rats was not injected with adjuvant. Body weights, primary (injected) and contralateral (non-injected) paw volumes (determined by mercury displacement plethysmography) and lateral radiographs (obtained under Ketamine and Xylazine anesthesia) were determined before (day-1) and at various time points including 21 days following adjuvant injection. The rats were anesthetized with an intramuscular injection of 0.03-0.1 ml of a combination of Ketamine (87 mg/kg) and Xylazine (13 mg/kg) for radiographs and injection of adjuvant. Lateral to medial radiographs were made of both hind paws on days 0 and 21 for using the Faxitron (45 kVp, 30 seconds or 45 kVp, 1 second) and Kodak X-OMAT TL film, and were developed in an automatic processor. […] Specific criteria were used to establish the numerical grade of severity for each radiographic change. The maximum possible score per foot was 26. Compounds or vehicle were administered prophylactically beginning post injection of adjuvant and continuing for 21 days. The Compounds were prepared weekly, refrigerated in the dark until used, and vortex mixed immediately prior to administration. […] The liver, thymus and spleens of all rats were removed and weighed and both hind paws were removed and radiographed.
Two-factor (‘treatment’ and ‘time’) analysis of variance with repeated measures on ‘time’ were applied to the percent changes for body weight and foot volumes and to the rank-transformed radiographic total scores. A post hoc Dunnett's test was conducted to compare the effect of treatments to vehicle. A one-way analysis of variance was applied to the thymic and spleen weights followed by the Dunnett's test to compare the effect of treatments to vehicle.
Compounds or vehicle (0.5% Methocel in sterile water) were administered by oral gavage once daily for 21 days following induction of arthritis in female Lewis rats via the sub plantar injection of 0.1 ml of light mineral oil containing 0.5 mg of Mycobacterium butyricum. Control animals were not injected with adjuvant. Body weights were measured 1 day prior to (i.e. day 0) and at 14 and 21 days post induction of arthritis. The data in Table 1 represent the mean increase or decrease in body weight ±1 standard deviation for groups of 9 to 10 animals.
Compounds or vehicle (0.5% Methocel in sterile water) were administered by oral gavage once daily for 21 days following induction of arthritis in female Lewis rats via the sub plantar injection of 0.1 ml of light mineral oil containing 0.5 mg of Mycobacterium butyricum. Control animals were not injected with adjuvant.
(§1) Injected foot volumes were measured by mercury displacement plethysmography prior to induction of arthritis, and on days 4, 14 and 21 post induction of arthritis. The data represent the mean increase in foot volume ±1 standard deviation for groups of 9 to 10 animals. The extent of paw swelling in compound-treated animals was compared to the mean of that in the vehicle-treated group, and percentage inhibition was calculated for each dose level of compound.
as §1, with “Contralateral foot” for “Injected foot”, “prior to,” for “prior to induction of arthritis,”, “and at” for “and on”, “days” for “days 4,”
[…] Data represent the mean weights of organs in mg ±1 standard deviation for groups of 9 to 10 animals.
Total radiographic scores were derived from examination of lateral radiographs obtained prior to, and on day 21 post induction of arthritis.

[2] = tested on: PPAR-α, PPAR-γ and PPAR-δ; assay: Classification of ligands according to their PPAR activity (Table A); set-up: species or system human; settings: classification based on IC50 and EC50 data of Table B
[3] = target: T1, recombinant human PPARδ (GST-PPARδ) (Homo sapiens, UniProt Q03181); assay: Scintillation Proximity Assay, displacement of [3H2]Compound B from PPARδ; format: binding; settings: SPA, radioligand
T1 construct: The full length human cDNAs for PPARδ and PPARα were subcloned into the pGEX-KT expression vector; made in house; host or cells: E. coli
T1 sequence (Q03181 1-441): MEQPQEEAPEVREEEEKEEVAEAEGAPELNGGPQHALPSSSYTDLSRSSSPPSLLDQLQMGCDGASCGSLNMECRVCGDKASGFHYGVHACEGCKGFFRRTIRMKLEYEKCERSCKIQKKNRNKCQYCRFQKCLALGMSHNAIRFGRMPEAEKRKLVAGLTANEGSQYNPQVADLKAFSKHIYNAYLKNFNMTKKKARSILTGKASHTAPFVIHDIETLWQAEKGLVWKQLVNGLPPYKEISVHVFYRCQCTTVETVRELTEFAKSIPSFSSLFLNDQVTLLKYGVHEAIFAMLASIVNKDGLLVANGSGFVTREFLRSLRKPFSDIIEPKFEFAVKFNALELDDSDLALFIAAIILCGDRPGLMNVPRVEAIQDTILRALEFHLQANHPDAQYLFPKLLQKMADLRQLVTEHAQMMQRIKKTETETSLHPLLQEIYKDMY
Description: As an approach to identifying human PPAR agonists, a Scintillation Proximity Assay was used to characterize PPAR-γ, PPAR-δ, and PPAR-α ligands.
Human PPARγ2, human PPARδ and human PPARα were expressed as GST-fusion proteins in E. coli. The full length human cDNA for PPARγ 2 was subcloned into the pGEX-2 T expression vector (Amersham Pharmacia Biotech, Inc.). The full length human cDNAs for PPARδ and PPARα were subcloned into the pGEX-KT expression vector (Amersham Pharmacia Biotech, Inc.). E. coli containing the respective plasmids were propagated, induced, and harvested by centrifugation. The resuspended pellet was broken in a French press and debris removed by centrifugation. Recombinant human PPAR receptors were purified by affinity chromatography on glutathione sepharose. After application to the column, and one wash, receptor was eluted with glutathione. Glycerol (10%) was added to stabilize the receptor and aliquots were stored at −80° C.
After incubation for ˜16 h at 15° C. with shaking, the assay plates were counted in a Packard Topcount with quench correction.

[4] = Compound 1 30 mg/kg/day, indomethacin 2 mg/kg/day p.o. q.d.
[5] = day 21, 30 mg/kg q.d. prophylactic
[6] = injected paw, Compound 1 30 mg/kg/day, indomethacin 2 mg/kg/day p.o. q.d.

SMILES | Secondary Foot Volume % Inhibition Compared to Vehicle Day 21-0 [1, 4] [%] | Change in Secondary Foot Volume Day 21-0 [1, 4] [µL] | Change in Secondary Foot Volume Day 14-0 [1] | Secondary Foot Volume % Inhibition Compared to Vehicle Day 14-0 [1] [%] | radiographic total scores of contralateral paws compared with vehicle ([1]; day 21) | Change in Primary Foot Volume Day 21-0 [1, 6] | Change in Primary Foot Volume Day 4-0 ([1]; injected paw) | Primary Foot Volume % Inhibition Compared to Vehicle Day 4-0 ([1]; injected paw) [%] | Primary Foot Volume % Inhibition Compared to Vehicle Day 14-0 ([1]; injected paw) [%] | Change in Primary Foot Volume Day 14-0 ([1]; injected paw) | radiographic total scores on day 21, Primary (injected) paw [1, 4] | radiographic total scores on day 21, Secondary (contralateral) Paw [1, 4] | change in body weight Day 21-0 ([1]; Compound 1 30 mg/kg/day) | change in body weight Day 14-0 [1] | body weight gain compared with vehicle-treated animals [1] | degree of thymic involution compared with vehicle ([1]; rat, in vivo) | Spleen [1] [mg] | Thymus (mg) [1] | prevention of swelling of primary or secondary paws [1] | Thymus [1] [mg] | further results
Cc1cc(SCc2sc(-c3ccc(C(F)(F)F)cc3)nc2C)ccc1OCC(=O)O.[Na+] [Compound 1] | 77.8 | 246.0 | 38 ± 161^++ μL | 92.4 | significantly less | 2612 ± 909 µL | 1510 ± 523^+ μL | 23.1 | 30.0 | 1530 ± 659**^++ μL | 13.0 ± 7.2 | 1.8 ± 3.3^++ | 2.9 ± 7.4**^++ grams | 1.9 ± 6.6**^++ grams | gained more weight than did vehicle-treated animals | less severe | 601.0 ± 52.8 | 275.0 ± 50.4**^++ mg |  |  | swelling of the contralateral (secondary) paw [1, 5]: inhibited the day 21 swelling of the contralateral (secondary) paw; swelling of the primary (injected) paw [1, 5]: did not affect the swelling of the primary (injected) paw; Liver (mg) ([1]; rat, in vivo): 1209.0 ± 129.0**^++ mg; liver weight compared with vehicle ([1]; rat, in vivo): significantly heavier
Cc1cccc(Nc2cc(Cl)nc(SCC(=O)O)n2)c1C [Compound 4, WY-14643, reference compound] |  |  | 704 ± 421 µL | 22.1 |  |  | 2133 ± 266 µL | 0 |  | 2585 ± 733 µL |  |  |  | −15.2 ± 6.8 grams |  |  | 665.1 ± 69.8 |  | failed to prevent swelling of either the primary or secondary paws | 146.8 ± 33.4 | PPAR Activity [2]: Alpha Agonist
CC(C)OC(=O)C(C)(C)Oc1ccc(C(=O)c2ccc(Cl)cc2)cc1 [Compound 5, Fenofibrate, reference compound] |  |  | 824 ± 186 µL |  |  |  | 1421 ± 212^+ μL |  |  | 1945 ± 415 µL |  |  |  | −7.6 ± 5.3 grams |  |  | 644.4 ± 159.2 |  | failed to prevent swelling of either the primary or secondary paws | 155.3 ± 27.8 | 
CN(CCOc1ccc(CC2SC(=O)NC2=O)cc1)c1ccccn1 (stereo not drawn) [Compound 6, Rosiglitazone, reference compound] |  |  |  |  |  |  |  |  |  |  |  |  |  | 0.4 ± 6.4**^++ grams |  |  | 634.5 ± 91.4 |  | failed to prevent swelling of either the primary or secondary paws | 187.8 ± 50.4 | PPAR Activity [2]: Gamma Agonist
CCCc1c(OCCCSc2ccc(CC(=O)O)cc2Cl)ccc2c(C(F)(F)F)noc12 [Compound B, 3-chloro-4-(3-(7-propyl-3-trifluoromethyl-6-benz-[4,5]-isoxazoloxy)propylthio)phenylacetic acid, reference compound] |  |  |  |  |  |  |  |  |  |  |  |  |  |  |  |  |  |  |  |  | Kd [3]: ~1 nM
COc1ccc2c(c1)c(CC(=O)O)c(C)n2C(=O)c1ccc(Cl)cc1 [Indomethacin, indomethacin, reference compound] | 79.2 | 201.0 | 275 ± 138^++ μL | 62.0 | significantly less | 499 ± 135^++ μL | 798 ± 164^++ μL | 59.2 | 65.7 | 799 ± 159*^++ μL | 4.3 ± 1.3^++ | 3.3 ± 1.3**^++ | 11.6 ± 8.0**^++ grams | 8.6 ± 7.7**^++ grams | gained more weight than did vehicle-treated animals | less severe | 738.0 ± 124.0 | 426.0 ± 69.0^++ mg |  |  | radiographic total scores of primary paws compared with vehicle ([1]; day 21): significantly less; Primary Foot Volume % Inhibition Compared to Vehicle Day 21-0 [1, 6]: 79.2%; Liver ([1]; rat, in vivo): 866.0 ± 86.0 mg
